Experimental findings from patent US9650361B2, “N-(pyridin-2-yl)pyrimidin-4-amine derivatives containing a sulfoximine group” (BAYER PHARAM AKTIENGESELLSCHAFT, priority 2012, dated 2017) are described below.

Like-named read-outs stand apart in the source and are kept apart here.

The subject of one test is A2780 cells. Briefly: Proliferation assay, A2780 (Method 3). It counts as cell-based, human. The settings on record: 4 days, crystal violet, read-out: Inhibition of A2780 cell proliferation IC50. The procedure: (§1) Cultivated tumour cells (HeLa, human cervical tumour cells, ATCC CCL-2; NCI-H460, human non-small cell lung carcinoma cells, ATCC HTB-177; A2780, human ovarian carcinoma cells, ECACC #93112519; DU 145, hormone-independent human prostate carcinoma cells, ATCC HTB-81; HeLa-MaTu-ADR, multidrug-resistant human cervical carcinoma cells, EPO-GmbH Berlin; Caco-2, human colorectal carcinoma cells, ATCC HTB-37; B16F10, mouse melanoma cells, ATCC CRL-6475) were plated at a density of 5,000 cells/well (DU145, HeLa-MaTu-ADR), 3,000 cells/well (NCI-H460, HeLa), 2,500 cells/well (A2780), 1,500 cells/well (Caco-2), or 1,000 cells/well (B16F10) in a 96-well multititer plate in 200 μL of their respective growth medium supplemented 10% fetal calf serum. After 24 hours, the cells of one plate (zero-point plate) were stained with crystal violet (see below), while the medium of the other plates was replaced by fresh culture medium (200 μl), to which the test substances were added in various concentrations (0 μM, as well as in the range of 0.001-10 μM; the final concentration of the solvent dimethyl sulfoxide was 0.5%). The cells were incubated for 4 days in the presence of test substances. Cell proliferation was determined by staining the cells with crystal violet: the cells were fixed by adding 20 μl/measuring point of an 11% glutaric aldehyde solution for 15 minutes at room temperature. After three washing cycles of the fixed cells with water, the plates were dried at room temperature. The cells were stained by adding 100 μl/measuring point of a 0.1% crystal violet solution (pH 3.0). After three washing cycles of the stained cells with water, the plates were dried at room temperature. The dye was dissolved by adding 100 μl/measuring point of a 10% acetic acid solution. The extinction was determined by photometry at a wavelength of 595 nm. The change of cell number, in percent, was calculated by normalization of the measured values to the extinction values of the zero-point plate (=0%) and the extinction of the untreated (0 μm) cells (=100%). The IC50 values (inhibitory concentration at 50% of maximal effect) were determined by means of a 4 parameter fit.

The subject of a further test is B16F10 cells. Briefly: Proliferation assay, B16F10 (Method 3). It counts as cell-based, mouse. The settings on record: 4 days, crystal violet, read-out: Inhibition of B16F10 cell proliferation IC50. The procedure: as §1
For the next test, the system named is NCI-H460 cells. Briefly: Proliferation assay, NCI-H460 (Method 3). It counts as cell-based, human. The settings on record: 4 days, crystal violet, read-out: Inhibition of NCI-H460 cell proliferation IC50. The procedure:
as §1

The subject of another test is HeLa cells. Briefly: Proliferation assay, HeLa (Method 3). It counts as cell-based, human. The settings on record: 4 days, crystal violet, read-out: Inhibition of HeLa cell proliferation IC50. The procedure: as §1
The target in a further test is T1, CDK2/CycE (Homo sapiens, UniProt P24941).
T1 construct: GST; purchased ProQinase GmbH (Freiburg, Germany); host or cells: insect cells (Sf9)
Briefly: CDK2/CycE kinase assay (Method 2a). It counts as biochemical. The settings on record: 10 μM ATP. The text has this:
2a. CDK2/CycE Kinase Assay:
CDK2/CycE-inhibitory activity of compounds of the present invention was quantified employing the CDK2/CycE TR-FRET assay as described in the following paragraphs:
Recombinant fusion proteins of GST and human CDK2 and of GST and human CycE, expressed in insect cells (Sf9) and purified by Glutathion-Sepharose affinity chromatography, were purchased from ProQinase GmbH (Freiburg, Germany) As substrate for the kinase reaction biotinylated peptide biotin-Ttds-YISPLKSPYKISEG (C-terminus in amid form) was used which can be purchased e.g. form the company JERINI Peptide Technologies (Berlin, Germany).
For the assay 50 nl of a 100 fold concentrated solution of the test compound in DMSO was pipetted into a black low volume 384 well microtiter plate (Greiner Bio-One, Frickenhausen, Germany), 2 μl of a solution of CDK2/CycE in aqueous assay buffer [50 mM Tris/HCl pH 8.0, 10 mM MgCl2, 1.0 mM dithiothreitol, 0.1 mM sodium ortho-vanadate, 0.01% (v/v) Nonidet-P40 (Sigma)] were added and the mixture was incubated for 15 min at 22° C. to allow pre-binding of the test compounds to the enzyme before the start of the kinase reaction. Then the kinase reaction was started by the addition of 3 μl of a solution of adenosine-tri-phosphate (ATP, 16.7 μM=>final conc. in the 5 μl assay volume is 10 μM) and substrate (1.25 μM=>final conc. in the 5 μl assay volume is 0.75 μM) in assay buffer and the resulting mixture was incubated for a reaction time of 25 min at 22° C. The concentration of CDK2/CycE was adjusted depending of the activity of the enzyme lot and was chosen appropriate to have the assay in the linear range, typical concentrations were in the range of 130 ng/ml. The reaction was stopped by the addition of 5 μl of a solution of TR-FRET detection reagents (0.2 μM streptavidine-XL665 [Cisbio Bioassays, Codolet, France] and 1 nM anti-RB(pSer807/pSer811)-antibody from BD Pharmingen [#558389] and 1.2 nM LANCE EU-W1024 labeled anti-mouse IgG antibody [Perkin-Elmer, product no. AD0077]) in an aqueous EDTA-solution (100 mM EDTA, 0.2% (w/v) bovine serum albumin in 100 mM HEPES/NaOH pH 7.0).
The resulting mixture was incubated 1 h at 22° C. to allow the formation of complex between the phosphorylated biotinylated peptide and the detection reagents. Subsequently the amount of phosphorylated substrate was evaluated by measurement of the resonance energy transfer from the Eu-chelate to the streptavidine-XL. Therefore, the fluorescence emissions at 620 nm and 665 nm after excitation at 350 nm was measured in a TR-FRET reader, e.g. a Rubystar (BMG Labtechnologies, Offenburg, Germany) or a Viewlux (Perkin-Elmer). The ratio of the emissions at 665 nm and at […] was taken as the measure for the amount of phosphorylated substrate. The data were normalised (enzyme reaction without inhibitor=0% inhibition, all other assay components but no enzyme=100% inhibition).

The subject of another test is Caco-2 cells. Description: Proliferation assay, Caco-2 (Method 3). It counts as cell-based, human. The settings on record: 4 days, crystal violet, read-out: Inhibition of Caco-2 cell proliferation IC50. The procedure:
as §1

With `COc1cc(F)ccc1-c1cc(Nc2cc(CS(C)(=N)=O)ccn2)ncn1` (racemic) [Example 1, (rac)-6-(4-Fluoro-2-methoxyphenyl)-N-{4-[(S-methylsulfonimidoyl)methyl]pyridin-2-yl}pyrimidin-4-amine], the IC50 in the test with A2780 cells (Homo sapiens, A2780, 96 h) is 60 nM; in the test on B16F10 cells (Mus musculus, B16-F10, 96 h), 488 nM; with NCI-H460 cells (Homo sapiens, NCI-H460, 96 h), 638 nM; with HeLa cells (Homo sapiens, HeLa, 96 h), 477 nM; against CDK2/CycE, 600 nM; in the test on Caco-2 cells (Homo sapiens, Caco-2, 96 h) it was 537 nM.

For `COc1cc(F)ccc1-c1cc(Nc2cc(CS(C)(=N)=O)cc(Cl)n2)ncn1` (racemic) [Example 4, (rac)-N-{6-Chloro-4-[(S-methylsulfonimidoyl)methyl]pyridin-2-yl}-6-(4-fluoro-2-methoxyphenyl)pyrimidin-4-amine], the IC50 with A2780 cells (Homo sapiens, A2780, 96 h) was found to be 62 nM; with B16F10 cells (Mus musculus, B16-F10, 96 h) it was 215 nM; in the test on NCI-H460 cells (Homo sapiens, NCI-H460, 96 h) it was 372 nM; in the test with HeLa cells (Homo sapiens, HeLa, 96 h), 109 nM; against CDK2/CycE, 160 nM; in the test with Caco-2 cells (Homo sapiens, Caco-2, 96 h) it was 145 nM.

Take `COc1cc(F)ccc1-c1cc(Nc2cc(CS(C)(=N)=O)cc(C)n2)ncn1` (racemic) [Example 7, (rac)-6-(4-Fluoro-2-methoxyphenyl)-N-{6-methyl-4-[(S-methylsulfonimidoyl)methyl]pyridin-2-yl}pyrimidin-4-amine]: the IC50 was 35 nM with A2780 cells (Homo sapiens, A2780, 96 h); 216 nM in the test on B16F10 cells (Mus musculus, B16-F10, 96 h); 375 nM in the test on NCI-H460 cells (Homo sapiens, NCI-H460, 96 h); 121 nM in the test on HeLa cells (Homo sapiens, HeLa, 96 h); 280 nM against CDK2/CycE; 230 nM in the test with Caco-2 cells (Homo sapiens, Caco-2, 96 h).

As to `COc1cc(F)ccc1-c1cc(Nc2cc(CS(C)(=N)=O)cc(C(F)(F)F)n2)ncn1` (racemic) [Example 10, (rac)-6-(4-Fluoro-2-methoxyphenyl)-N-{4-[(S-methylsulfonimidoyl)methyl]-6-(trifluoromethyl)pyridin-2-yl}pyrimidin-4-amine], the IC50 was found to be 32 nM in the test on A2780 cells (Homo sapiens, A2780, 96 h); 100 nM with B16F10 cells (Mus musculus, B16-F10, 96 h); 135 nM in the test on NCI-H460 cells (Homo sapiens, NCI-H460, 96 h); 60 nM with HeLa cells (Homo sapiens, HeLa, 96 h); 63 nM against CDK2/CycE; 116 nM in the test on Caco-2 cells (Homo sapiens, Caco-2, 96 h).

In the case of `COc1cc(F)ccc1-c1cc(Nc2cc(CS(C)(=N)=O)ccn2)ncn1` (single isomer, unassigned) [Example 2, 6-(4-Fluoro-2-methoxyphenyl)-N-{4-[(S-methylsulfonimidoyl)methyl]pyridin-2-yl}pyrimidin-4-amine], the IC50 with A2780 cells (Homo sapiens, A2780, 96 h) came to 193 nM; with HeLa cells (Homo sapiens, HeLa, 96 h), 456 nM; against CDK2/CycE, 1300 nM.

Take `COc1cc(F)ccc1-c1cc(Nc2cc(CS(C)(=N)=O)ccn2)ncn1` (single isomer, unassigned) [Example 3, 6-(4-Fluoro-2-methoxyphenyl)-N-{4-[(S-methylsulfonimidoyl)methyl]pyridin-2-yl}pyrimidin-4-amine]: the figures for the IC50 in the test on A2780 cells, in the test with HeLa cells and against CDK2/CycE were 126 nM, 850 nM and 660 nM, respectively.

In the case of `COc1cc(F)ccc1-c1cc(Nc2cc(CS(C)(=N)=O)cc(Cl)n2)ncn1` (single isomer, unassigned) [Example 5, N-{6-Chloro-4-[(S-methylsulfonimidoyl)methyl]pyridin-2-yl}-6-(4-fluoro-2-methoxyphenyl)pyrimidin-4-amine], the IC50 with A2780 cells (Homo sapiens, A2780, 96 h) was 34 nM; in the test on B16F10 cells (Mus musculus, B16-F10, 96 h) it was 122 nM; with NCI-H460 cells (Homo sapiens, NCI-H460, 96 h) it was 185 nM; with HeLa cells (Homo sapiens, HeLa, 96 h), 104 nM; at CDK2/CycE, 56 nM; in the test on Caco-2 cells (Homo sapiens, Caco-2, 96 h), 166 nM.

`COc1cc(F)ccc1-c1cc(Nc2cc(CS(C)(=N)=O)cc(Cl)n2)ncn1` (single isomer, unassigned) [Example 6, N-{6-Chloro-4-[(S-methylsulfonimidoyl)methyl]pyridin-2-yl}-6-(4-fluoro-2-methoxyphenyl)pyrimidin-4-amine]: the IC50 with A2780 cells is 39 nM; with B16F10 cells it was 123 nM; in the test with NCI-H460 cells it was 192 nM; in the test with HeLa cells it was 104 nM; at CDK2/CycE, 94 nM; with Caco-2 cells, 177 nM.

Turning to `COc1cc(F)ccc1-c1cc(Nc2cc(CS(C)(=N)=O)cc(C)n2)ncn1` (single isomer, unassigned) [Example 8, 6-(4-Fluoro-2-methoxyphenyl)-N-{6-methyl-4-[(S-methylsulfonimidoyl)methyl]pyridin-2-yl}pyrimidin-4-amine], the IC50 with A2780 cells (Homo sapiens, A2780, 96 h) was determined as 36 nM; in the test on B16F10 cells (Mus musculus, B16-F10, 96 h) it was 284 nM; with NCI-H460 cells (Homo sapiens, NCI-H460, 96 h) it was 319 nM; with HeLa cells, 118 nM; against CDK2/CycE, 400 nM; in the test on Caco-2 cells (Homo sapiens, Caco-2, 96 h) it was 246 nM.

For the compound `COc1cc(F)ccc1-c1cc(Nc2cc(CS(C)(=N)=O)cc(C)n2)ncn1` (single isomer, unassigned) [Example 9, 6-(4-Fluoro-2-methoxyphenyl)-N-{6-methyl-4-[(S-methylsulfonimidoyl)methyl]pyridin-2-yl}pyrimidin-4-amine], the IC50 is 39 nM with A2780 cells; 205 nM in the test with B16F10 cells; 193 nM in the test on NCI-H460 cells; 52 nM in the test on HeLa cells; 330 nM against CDK2/CycE; 212 nM with Caco-2 cells.
